Laboratory results taken from patent publication US9023795B2, “Angiogenesis-inhibiting peptide and application thereof” (Shanghai First People's Hospital, priority 2010, dated 2015).

Legend:
[1] = test system: pathological angiogenesis in the mouse retina; experiment: Retinal angiogenesis in hypoxia-induced mice; format: in vivo, C57BL/6 mice; conditions: intravitreal, eyeballs removed 5 days later, P<0.01
Protocol: Model of retinal angiogenesis in hypoxia-induced mice was used and the methods were as follows:
Seven days after birth, C57BL/6 mice were placed together with their breast feeding mother into an environment having a 75%±2% oxygen concentration. The mice were taken out 5 days later, and were injected intravitreally with […] ZY1 small peptides of low concentration (500 ng/μl), moderate concentration (1 μg/μl), high concentration (2 μg/μl) or control sample PBS. Mice were placed in an environment having normal air for further feeding, thereby forming the mice model of retinopathy induced by hypoxia. The eyeballs were removed 5 days later, fixed in 4% paraformaldehyde, embedded in paraffin, cut into sections, and stained with HE. The amount of the nucleus of the vascular endothelial cells in retina was counted under the optical microscope (Magnification was 200 fold). SPSS11.0.1 was used for statistical analysis.

[2] = test system: Human Umbilical Vein Endothelial Cells (HUVECs); experiment: Migration of primary HUVECs, Wound Healing method; format: cell-based; conditions: VEGF (10 ng/ml) + ZY1 1, 10, 25, 50 μg/μl, 6 hours
Protocol: The Wound Healing method was used as follows:
Primary Human Umbilical Vein Endothelial Cells (HUVECs) (purchased from ScienCell Co.) were inoculated onto a 12-well plate with an inoculation concentration of 1×10^5/ml. After cells had adhered to the wall and grown to 80%-90% of confluence, serum-free culture medium of ECM were added before cultivation at 37° C. for 24 hours. A “+” scratch was carved with the tip of a 200 μl pipettor in each well and serum-free culture medium ECM were added in negative control group. VEGF (10 ng/ml) (purchased from Sigma Co.) in positive control group, and VEGF (10 ng/ml)+ZY1 small peptide having different concentrations (1 μg/μl, 10 μg/μl, 25 μg/μl, 50 μg/μl) in treatment group were added as well. The cultivation was continued. Photos were taken for the scratches of the cells in the 12-well plate at 0 hour and 6 hour, respectively. The average width of the scratches was calculated. The migration activity was determined according to the scratch width. Finally, SPSS11.0.1 was used for statistical analysis.

[3] = test system: pathological angiogenesis in the mouse cornea; experiment: Corneal stroma micropocket model, VEGF-induced pathological angiogenesis in the mouse cornea; format: in vivo, C57BL/6 mice; conditions: 5 days after operation, compared with VEGF group
Protocol: Model of the corneal stroma micropocket was used and the methods were as follows:
Male C57BL/6 mice (aged 4-5 weeks) were intraperitoneally injected with 2% pentobarbital (about 0.1 ml/PCS) for anesthesia. 4% hydrochloric oxybuprocaine ophthalmic solution was locally administrated. Under the stereo microscope, OT syringe needle and 2 ml syringe needle was used to perform a blunt dissection between the layers of corneal stroma at 0.8-1 mm from corneoscleral limbus. A pouch of about 0.6×0.8 mm was formed. Slow-release tablets (mixture of 1:1 (v/v) of 12% poly Hydroxyethyl methacrylate (polyHEMA): sucralfate) were planted respectively into the micropocket, including negative control group (blank tablet), positive control group (VEGF group: 320 ng/μl, 160 ng/tablet), and treatment group (VEGF+ZY1 small peptides of 1 μg/tablet low concentration, 5 μg/tablet moderate concentration, or 10 μg/tablet high concentration). 5 days after operation, the length of the longest new vessel (VL is the length of the longest new blood vessel grown from limbus to the cornea), and the clock hours of corneal neovascularization (CN represents the accumulative clock hours of corneal neovascularization) were observed. Neovascularization area were calculated as followed: Area (mm^2)=0.5*3.14*VL (mm)*CN*0.4 (mm). […] was used for statistical analysis.

[4] = test system: Human Umbilical Vein Endothelial Cells (HUVECs); experiment: Lumen formation of primary HUVECs, Matrigel method; format: cell-based; conditions: ZY1 at different concentrations (1, 10, 25, 50 μg/μl), VEGF 50 ng/ml, 6 hours of treatment
Protocol: The Matrigel method was used as follows:
A 50 μl/well Matrigel (purchased from BD Co.) was added into a 96-well plate before incubation at 37° C. for 30 min. After solidified, the primary HUVECs were inoculated onto the surface of the Matrigel with an inoculation concentration of 8×10^6/ml. Serum-free culture medium of ECM in negative control group, VEGF (50 ng/ml) (purchased from Sigma Co.) in positive control group, and ZY1 small peptide having different concentrations (1 μg/μl, 10 μg/μl, 25 μg/μl, 50 μg/μl) in treatment group were added into the wells. The incubation was continued at 37° C. Photos were taken for the 3 randomized fields of cells in the plate under the microscope (Magnification was 200 fold.) after 6 hours of treatment and the number of formed lumina was counted. Finally, SPSS11.0.1 was used for statistical analysis.

[5] = test system: Human Umbilical Vein Endothelial Cells (HUVECs); experiment: Proliferation of primary HUVECs, MTS method; format: cell-based; conditions: VEGF + ZY1, even at low concentration (1 μg/μl), 24 hours incubation
Protocol: The MTS method was used as follows:
Human Umbilical Vein Endothelial Cells (HUVECs) (purchased from ScienCell Co.) were inoculated onto a 96-well plate with an inoculation concentration of 4×10^4/ml. After cells had adhered to the wall, serum-free culture medium of ECM were added and the cells were cultivated at 37° C. for 24 hours. Then the serum-free culture medium ECM was added into each well in negative control group. VEGF (10 ng/ml) (purchased from Sigma Co.) in positive control group, VEGF (10 ng/well) ZY1 small peptide having different concentrations (1 μg/μl, 10 μg/μl, 25 μg/μl, 50 μg/μl) in treatment group were added as well. After 24 hours incubation, 20 μl MTS solution (purchased from Promega Corporation) was added in each well. After incubation at 37° C. for 4 hours, the absorbance at 490 nm for each well was measured by using Enzyme-linked Immunoassay Analysis (Bio-Rad Co.). The proliferation activity of cells was determined according to OD490. Finally, SPSS11.0.1 was used for statistical analysis.
Derived Polypeptides were prepared as follows, and the inhibition effect on proliferation of Human Umbilical Vein Endothelial Cells HUVECs was determined according to the methods in Example 6.

[6] = test system: Human Umbilical Vein Endothelial Cells (HUVECs); experiment: Chemotaxis of primary HUVECs, Transwell Chamber method; format: cell-based; conditions: ZY1 10, 25, 50 μg/μl in upper chamber, VEGF (50 ng/ml) in lower chamber, 24 hours
Protocol: The Transwell Chamber method was used as follows:
HUVECs (purchased from ScienCell Co.) were inoculated onto the upper chamber of Transwell chambers with an inoculation concentration of 6×10^5/ml. Serum-free culture medium of ECM or ZY1 small peptide having different concentrations (10 μg/μl, 25 μg/μl, 50 μg/μl) were added into individual upper chambers. VEGF (50 ng/ml) (purchased from Sigma Co.) was added/not added into the lower chamber as a chemotactic factor. After incubation at 37° C. for 24 hours, the cells on upper surface of Transwell Chamber membrane were wiped and the membrane was washed with PBS. Then the membrane was fixed in 4% paraformaldehyde solution and the lower surface of membrane was stained with hematoxylin, cut and then sections were prepared. Five fields on the chamber membrane under the optical microscope (Magnification was 400 fold) were randomly taken for photograph and the number of cells nucleus was counted. The chemotaxis was determined according to the number of cells nucleus on the lower surface of chamber membrane. Finally, SPSS11.0.1 was used for statistical analysis.

For “CVSLLRCTGCC GDENLHCVPV (CVSLLRCTGCCGDENLHCVPV; angiogenesis-inhibiting peptide ZY1)”, the “inhibition of pathological angiogenesis in mouse retina (amount of nucleus of vascular endothelial cells)” value ([1]; high concentration (2 μg/μl)) was “significantly inhibited”, the “inhibition of pathological angiogenesis in mouse retina (amount of nucleus of vascular endothelial cells)” value ([1]; moderate concentration (1 μg/μl)) was “significantly inhibited” and the “inhibition of migration of primary HUVECs (scratch width)” value [2] was “significantly inhibited”. The “inhibition of corneal angiogenesis (neovascularization area)” value ([3]; high concentration (10 μg/tablet) + VEGF 160 ng/tablet) was “significantly inhibited”, the “inhibition of corneal angiogenesis (neovascularization area)” value ([3]; moderate concentration (5 μg/tablet) + VEGF 160 ng/tablet) was “significantly inhibited” and the “inhibition of lumen formation of primary HUVECs (number of formed lumina)” value [4] was “significant inhibition effect”. For the same sequence, the “inhibition of proliferation of HUVECs (OD490)” value [5] was “significantly inhibited” and the “inhibition of chemotaxis of HUVECs (number of cell nuclei on lower surface of chamber membrane)” value [6] was “significant inhibition effect”.
